# Measurements published in patent US20180290977A1, “KDM4 INHIBITORS” (Albert-Ludwigs-University Freiburg, priority 2017, published 2018).
# Like-named read-outs stand apart in the source and are kept apart here.
# Experiments:
# KDM4C = molecular target: T1, KDM4C (Homo sapiens, UniProt Q9H3R0); experiment: KDM demethylase inhibition (IC50); format: biochemical
# T1 sequence (Q9H3R0 1-1056): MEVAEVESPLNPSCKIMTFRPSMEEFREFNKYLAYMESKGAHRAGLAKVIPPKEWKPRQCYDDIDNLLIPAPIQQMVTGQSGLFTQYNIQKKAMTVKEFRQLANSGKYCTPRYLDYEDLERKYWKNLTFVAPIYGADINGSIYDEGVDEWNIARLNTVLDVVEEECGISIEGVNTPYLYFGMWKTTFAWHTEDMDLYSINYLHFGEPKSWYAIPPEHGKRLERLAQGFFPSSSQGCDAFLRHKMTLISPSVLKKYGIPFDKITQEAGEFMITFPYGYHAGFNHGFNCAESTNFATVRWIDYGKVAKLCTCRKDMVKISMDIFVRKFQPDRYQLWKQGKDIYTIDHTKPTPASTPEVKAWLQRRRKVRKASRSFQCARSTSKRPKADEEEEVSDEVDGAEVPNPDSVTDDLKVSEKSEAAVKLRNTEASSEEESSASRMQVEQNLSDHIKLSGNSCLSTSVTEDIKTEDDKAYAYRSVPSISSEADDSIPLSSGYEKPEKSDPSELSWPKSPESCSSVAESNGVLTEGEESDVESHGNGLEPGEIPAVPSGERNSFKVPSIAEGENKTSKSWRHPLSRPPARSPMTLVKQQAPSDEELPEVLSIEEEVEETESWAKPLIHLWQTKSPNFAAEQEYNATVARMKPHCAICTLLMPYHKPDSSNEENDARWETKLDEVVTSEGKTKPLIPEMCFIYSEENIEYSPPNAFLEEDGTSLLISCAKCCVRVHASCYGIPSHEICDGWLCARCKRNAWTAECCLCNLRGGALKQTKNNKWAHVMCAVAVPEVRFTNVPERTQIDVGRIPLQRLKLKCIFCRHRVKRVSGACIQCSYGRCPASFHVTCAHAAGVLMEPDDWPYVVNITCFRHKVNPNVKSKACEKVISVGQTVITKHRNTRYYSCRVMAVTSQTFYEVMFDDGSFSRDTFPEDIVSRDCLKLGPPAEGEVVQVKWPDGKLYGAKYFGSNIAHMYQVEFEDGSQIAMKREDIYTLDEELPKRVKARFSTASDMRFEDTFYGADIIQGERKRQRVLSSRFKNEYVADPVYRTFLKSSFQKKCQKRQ
# KDM6B = KDM6B (Homo sapiens, UniProt O15054); experiment: KDM demethylase inhibition (IC50); format: biochemical
# Sequence of KDM6B (O15054 whole entry): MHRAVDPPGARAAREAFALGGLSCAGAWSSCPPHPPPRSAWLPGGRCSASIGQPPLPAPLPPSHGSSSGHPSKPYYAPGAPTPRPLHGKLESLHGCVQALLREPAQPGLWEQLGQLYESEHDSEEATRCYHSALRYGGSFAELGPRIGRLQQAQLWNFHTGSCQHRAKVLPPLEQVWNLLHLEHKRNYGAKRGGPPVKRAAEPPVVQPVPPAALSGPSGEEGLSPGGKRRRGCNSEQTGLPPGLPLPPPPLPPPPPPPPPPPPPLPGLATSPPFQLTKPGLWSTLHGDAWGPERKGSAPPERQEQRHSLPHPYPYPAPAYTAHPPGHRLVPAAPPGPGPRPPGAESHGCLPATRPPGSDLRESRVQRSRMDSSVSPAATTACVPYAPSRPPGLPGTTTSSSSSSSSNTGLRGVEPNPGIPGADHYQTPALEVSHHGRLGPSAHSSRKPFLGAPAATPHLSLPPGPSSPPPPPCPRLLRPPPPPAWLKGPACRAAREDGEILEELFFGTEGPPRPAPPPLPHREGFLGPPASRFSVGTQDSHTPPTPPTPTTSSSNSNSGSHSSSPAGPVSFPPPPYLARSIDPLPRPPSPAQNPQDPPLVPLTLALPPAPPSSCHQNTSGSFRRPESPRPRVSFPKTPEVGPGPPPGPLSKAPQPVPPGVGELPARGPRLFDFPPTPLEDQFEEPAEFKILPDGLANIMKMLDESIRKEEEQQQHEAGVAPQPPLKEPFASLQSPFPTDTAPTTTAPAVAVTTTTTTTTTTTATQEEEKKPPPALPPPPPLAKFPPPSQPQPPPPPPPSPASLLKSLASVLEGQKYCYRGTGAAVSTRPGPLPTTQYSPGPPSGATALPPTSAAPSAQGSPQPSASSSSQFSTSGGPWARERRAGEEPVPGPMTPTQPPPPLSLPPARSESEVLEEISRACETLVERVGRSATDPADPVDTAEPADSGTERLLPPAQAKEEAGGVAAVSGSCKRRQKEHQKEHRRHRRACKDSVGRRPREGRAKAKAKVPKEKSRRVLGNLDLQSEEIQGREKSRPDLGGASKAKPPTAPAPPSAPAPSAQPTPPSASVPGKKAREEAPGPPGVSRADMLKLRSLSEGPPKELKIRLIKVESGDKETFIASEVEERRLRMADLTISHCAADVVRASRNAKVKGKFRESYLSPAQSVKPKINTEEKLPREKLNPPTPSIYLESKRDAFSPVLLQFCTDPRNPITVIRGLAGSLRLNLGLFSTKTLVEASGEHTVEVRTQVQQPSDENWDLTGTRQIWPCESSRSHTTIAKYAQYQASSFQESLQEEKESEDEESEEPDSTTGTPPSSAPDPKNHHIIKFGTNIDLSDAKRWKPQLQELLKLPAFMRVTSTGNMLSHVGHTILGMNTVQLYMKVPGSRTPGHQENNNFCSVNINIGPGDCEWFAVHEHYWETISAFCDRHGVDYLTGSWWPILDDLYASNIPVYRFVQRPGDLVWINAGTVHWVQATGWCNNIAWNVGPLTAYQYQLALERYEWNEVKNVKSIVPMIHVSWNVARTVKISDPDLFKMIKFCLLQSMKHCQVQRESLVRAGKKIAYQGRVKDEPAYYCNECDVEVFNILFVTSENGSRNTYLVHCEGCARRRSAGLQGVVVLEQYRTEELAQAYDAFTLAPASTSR
structure (smiles),measurement,setting,value
"CN(c1ccccc1)c1ccc2c(c1)CCC[C@H]2CNc1cnccc1C(=O)O [Compound I, 3-({[(1R)-6-[methyl(phenyl)amino]-1,2,3,4-tetrahydronaphthalen-1-yl]methyl}amino)pyridine-4-carboxylic Acid]",IC50,KDM4C; read-out: Compound I IC50,35 nM
same,IC50,"KDM4C; read-out: IC50, demethylase activity",< 105 nM
same,IC50,KDM6B,> 10000 nM
